Test results reported in patent publication US20040197777A1, “Polymorphisms of the OCTN1 and OCTN2 cation transporters associated with inflammatory bowel disorders” (priority 2001, published 2004).
One block for each compound: values may come before it.

Columns and labels:
Ulcerative Colitis = settings: topical irrigation of the colon; cited from earlier work
vascular inflammation = settings: various models of vascular inflammation in rodents; cited from earlier work
OCTN1 [1] = settings: transfected Phoenix mouse fibroblast cells, 37° C.; FIG. 4
Experimental: Transfected Phoenix mouse fibroblast cells were loaded with ^14C-labeled TEA for 30 min. at 37° C., washed twice in cold transport buffer, and then resuspended in transport medium. Efflux was initiated at 37° C. and measured at 0, 4, 8, 12 and 30 minutes. Measurements were taken by washing twice in cold transport buffer, solubilizing with 1× cell culture lysis reagent (Promega) and quantifying the 14C retention from 150 μL aliquots. Cellular protein content was determined according to the BCA method. For sodium-free experiments, cells were suspended in medium with sodium replaced isotonically with N-methyl-D-glucamine.

[2] = system: HSF1 binding to the OCTN2 promoter; assay: OCTN2 gel shift assay (EMSA) with HeLa nuclear extracts; assay type: cell-based, human; settings: nuclear extract of HeLa cells treated with arachidonate; no binding at 37° C. alone
Experimental: For OCTN2 gel shift assays, human HeLa cells were grown in D-MEM supplemented with 10% fetal bovine serum, 2 mm […], 100 U/ml penicillin, and 100 μg/ml streptomycin at 37° C. in T-75 tissue culture flasks (Sarstedt). Heat-shocked cells were prepared by incubating the flasks in tissue culture incubator at 42° C. for 3 hr. For arachidonate experiment, the day before, the HeLa cells were starved over night with in serum-free D-MEM. The next day cells were washed twice with PBS. Cells were treated then with for 30 min with […] arachidonate at 37° C. The working concentrations were prepared from sodium arachidonate (Sigma) and stored in cold absolute ethanol as a 100 mM stock solution. Control cells were treated with an equivalent concentration of ethanol. Nuclear extracts were prepared by NP-40 based fractionation. This procedure is a modification of the procedure described by Baler R, Dahl G & Voellmy R, Mol. Cell. Biol. 13: 2486-2496 (1993). […] The protein concentration of the extracts was measured using the Bradford assay (Bio-Rad). […]
The reaction products were separated electrophoretically on 4% polyacrylamide gel for 3 h at 200 V, dried and exposed to film and detected by autoradiography.

OCTN2 promoter = assay: OCTN2 luciferase promoter assay; assay type: cell-based, human; settings: HeLa cells, 20 μM arachidonic acid at 37° C.; FIG. 2
Excerpt: For the OCTN2 luciferase promoter assays, a Dual-Luciferase Reporter Assay System (Promega) was used to study the effect of the mutation on the OCTN2 promoter region. The OCTN2-promoter luciferase reporter gene constructs were generated by PCR amplification of approximately 2.7 kb OCTN2-promoter fragments using genomic DNA from a patient homozygous for the G allele as a template and ligation into Bg/II/MluI site of the promoterless luciferase vector pRL-null (Promega) that uses luciferase from Renilla reniformis as a reporter. For PCR primers, two primers, OCTN2-BglII:
5′-[…]-3′ (SEQ ID NO:13) and OCTN2-M1uI: 5′-[…]-3′ (SEQ ID NO:14) were used. […]
To normalize the activity of the experimental reporter, constructs were cotransfected into HeLa cells with 20-fold less firefly luciferase plasmid pGL3-P as an internal control LipofectAMINE PLUS™ Reagent (Invitrogen, La Jolla, Calif., USA) as per the manufacturer's protocol. […] The luminescence from (Renilla luciferase reaction (“experimental” reporter a:) was measured simultaneously with the activity of firefly luciferase (“control” reporter) using Dual-Luciferase Reporter Assay System (Promega). The instrumentation used was a manual luminometer (Lumat LB 9501, Berthold). The cells transfected with empty vector under similar conditions served as control. All assays were carried out in triplicate.

OCTN1 [3] = assay: OCTN1 transporter assay: uptake of radiolabeled carnitine by cells transfected with OCTN1 L503 or L503F; assay type: cell-based, human
Experimental: Transient expression of OCTN1 (transporter assays) and OCT2 (luciferase promoter assays). For transient expression of wild-type or mutant (L503F; SEQ ID NO:7), HeLa cells were plated out at a density […] cells/dish in 100-mm plastic culture dishes (Falcon) and carnitine deficient human fibroblasts, (GM 10665) were plated out at a density 2.5×10^5 cells/well in 6-well plastic culture dishes (Falcon) 24 hr prior transfection with LipofectAMINE PLUS™ Reagent (Invitrogen, La Jolla, Calif., USA) as recommended by the manufacturer.
For HeLa cell culture, human HeLa cells were grown in D-MEM supplemented with 10% fetal bovine serum, 2 mM L-glutamine, 100 U/ml penicillin, and 100 μg/ml streptomycin. […]
For the OCTN1 transporter assays, carnitine transport measurements were made at room temperature using L-[^3H]carnitine as substrate, (specific activity 81 Ci/mmol, Moravek Biochemicals Inc.). […] The cells were then solubilized with 1× cell culture lysis reagent (Promega), and the associated radioactivity was quantitated in a liquid scintillation counter. Cellular protein content was determined according to the bicinchoninic acid method of Smith P K et al., Anal. Biochem. 150: 76-85 (1985), using BCA standard protein assay reagent kit (Pierce). […] The luciferase activity was measured on manual luminometer (Lumat LB 9501, Berthold). […]

Structure (SMILES): CCC(=O)O[C@H](CC(=O)[O-])C[N+](C)(C)C [PLC, propyonil-L-carnitine]
effect on symptoms of Ulcerative Colitis (Ulcerative Colitis): improve some symptoms of Ulcerative Colitis
effect on inflammation (vascular inflammation): inhibits inflammation

Structure (SMILES): CC[N+](CC)(CC)CC [TEA, tetraethyl ammonium]
efflux of radiolabeled TEA by phenylalanine (L503F) variant of OCTN1 compared with leucine variant (L503) (OCTN1 [1]): significant decrease in efflux

binding of nuclear factor (HSF1) to oligonucleotide with wild-type G allele of OCTN2 promoter [2]: induced
Structure (SMILES): CCCCC/C=C\C/C=C\C/C=C\C/C=C\CCCC(=O)O [arachidonic acid]
decreased expression of luciferase construct with C allele of G-207C compared to the arachidonate-induced level (OCTN2 promoter): 3.3 fold

Structure (SMILES): C[N+](C)(C)CC(O)CC(=O)[O-] (stereo not shown) [carnitine]
reduction toward vector baseline in uptake of radiolabeled carnitine, L503F vs leucine allele (OCTN1 [3]; cell line from an individual lacking OCTN2 expression, FIG. 3B): 5.2 fold
reduction toward the vector-alone baseline in uptake of radiolabeled carnitine, phenylalanine allele (L503F) vs leucine allele (OCTN1 [3]; transient transfection into HeLa cells, FIG. 3A): 3.6 fold
